Laboratory results taken from US20040044087A1, “Use of hop acids in fuel ethanol production” (priority 1999, published 2004).

Columns and labels:
[1] = test system: Lb. fermentum; assay: Wheat mash fermentation contaminated with Lb. fermentum; format: cell-based, Lactobacillus fermentum; conditions: Example 5, inoculated 10^7 CFU/mL; Penicillin G 0.25 ppm, Virginiamycin 0.5 ppm, hop products at effective concentration
Procedure: The clean breed strains were kept frozen at −101.2° F. in MRS-broth containing 8%-glycerol and were inoculated from there in 10 mL cap tubes containing 2 mL MRS-broth. The headspace of each tube was flushed with filter sterilized (0.45 μm pore size membrane filter) CO2-gas and the caps were sealed with paraffin wax coated film. The tubes were incubated in a controlled environmental shaker at 100 rpm at 86° F. (Lb. brevis) and 96.8° F. (Lb. fermentum). After 12 hours 1 mL of these preparatory cultures were each transferred into 10 mL cap tubes containing 9 mL MRS-broth and incubated for another 24 hours, afterwards transferred to 100 mL screw cap flasks containing 90 mL of MRS-broth and again incubated at the appropriate temperature for 24 hours. These portions were transferred to 1 L screw cap flasks, containing 750 mL MRS-broth and were again incubated for 24 hours.
For inoculation of wheat mash the bacterial cells were aseptically harvested in sterile centrifugal tubes by centrifugation at 10,200×g for 15 minutes at 4° C. […]
Cell numbers of the organisms were estimated using a Beck photometer. […] Appropriate quantities of the concentrated cell suspension were added to 500 g quantities of wheat mash in laboratory fermentation flasks to give initial viable cell numbers of 10^7 CFU/mL. […]

[2] = below pH 5; cited from earlier work
[3] = test system: Lb. brevis; assay: Sugar beet molasses wort fermentation contaminated with Lb. brevis; format: cell-based, Lactobacillus brevis; conditions: 10^6 CFU/mL, Virginiamycin 0.5 ppm
Procedure: (§1) The clean breed strains were kept frozen at −101.2° F. in MRS-broth containing 8%-glycerol and were inoculated from there in 10 mL cap tubes containing 2 mL MRS-broth. The headspace of each tube was flushed with filter sterilized (0.45 μm pore size membrane filter) CO2-gas and the caps were sealed with paraffin wax coated film. The tubes were incubated in a controlled environmental shaker at 100 rpm at 86° F. (Lb. brevis) respectively 96.8° F. (Lb. fermentum). […] A filter sterilized (0.45 μm pore size membrane filter) 5 μl aliquot of the MRS-cell suspension for inoculation was determined by high performance liquid chromatography using a ProntoSIL 120-3-C18 AQ column which analyzes sugars, organic acids and alcohol, making sure glucose in the MRS-medium would be totally consumed and determining the amount of lactic acid an acetic acid added to fresh wort. Appropriate quantities of cell suspension were added to give a total of 500 g mash in laboratory fermentation flasks and initial viable bacterial cell numbers of 10^6 CFU/mL mash. The pH-value of the wort was afterwards readjusted to pH 5.2 if necessary. […]
(§2) The content of sucrose in beet molasses was determined by polarimeter after clarification with lead acetate. […]

[4] = test system: Lb. fermentum; assay: Sugar beet molasses wort fermentation contaminated with Lb. fermentum; format: cell-based, Lactobacillus fermentum; conditions: 10^6 CFU/mL, Virginiamycin 0.5 ppm
Procedure: as §1, §2

[5] = test system: lactobacillus; conditions: stated as fact for comparison with ISOHOP; cited from earlier work

For `CC1(C)S[C@@H]2[C@H](NC(=O)Cc3ccccc3)C(=O)N2[C@H]1C(=O)O` [Penicillin G], the “viable cells after fermentation, Lb. fermentum” value (from here on “viable cells … Lb. fermentum”) [1] is given as “practically no effect” and the stability [2] is given as “rather poor stability”.

In the case of Virginiamycin, the “viable cells after fermentation, Lb. brevis” value [3] is reported as “no viable cells”, the “viable cells … Lb. fermentum” value [4] is reported as “no viable cells” and the “viable cells … Lb. fermentum” value [1] is reported as 10^3 cells/mL. The “reduction of bacteria count” value [5] was 50%.
